Source: ChEMBL document CHEMBL5727499, “Derivatives and methods of treating hepatitis B infections” (2020)
pEC50: −log10 of the molar value.

Test: HBV Replication Inhibition Assay: HBV replication inhibition by the compounds of this invention could be determined in cells infected or transfected with HBV, or cells with stably integrated HBV, such as HepG2.2.15 cells (Sells et al. 1987). In this example, HepG2.2.15 cells were maintained in cell culture medium containing 10% fetal bovine serum (FBS), Geneticin, L-glutamine, penicillin and streptomycin. HepG2.2.15 cells could be seeded in 96-well plates at a density of 40,000 cells/well and be treated with serially diluted compounds at a final DMSO concentration of 0.5% either alone or in combination by adding drugs in a checker box format. Cells were incubated with compounds for three days, after which medium was removed and fresh medium containing compounds was added to cells and incubated for another three days. At day 6, supernatant was removed and treated with DNase at 37° C. for 60 minutes, followed by enzyme inactivation at 75° C. for 15 minutes. Encapsidated HBV DNA was released from the virions and covalently linked HBV polymerase by incubating in lysis buffer (Affymetrix QS0010) containing 2.5 μg proteinase K at 50° C. for 40 minutes. HBV DNA was denatured by addition of 0.2 M NaOH and detected using a branched DNA (BDNA) QuantiGene assay kit according to manufacturer recommendation (Affymetrix). HBV DNA levels could also be quantified using qPCR, based on amplification of encapsidated HBV DNA extraction with QuickExtraction Solution (Epicentre Biotechnologies) and amplification of HBV DNA using HBV specific PCR probes that can hybridize to HBV DNA and a fluorescently labeled probe for quantitation. In addition, cell viability of HepG2.2.15 cells incubated with test compounds alone or in combination was determined by using CellTitre-Glo reagent according to the manufacturer protocol (Promega). The mean background signal from wells containing only culture medium was subtracted from all other samples, and percent inhibition at each compound concentration was calculated by normalizing to signals from HepG2.2.15 cells treated with 0.5% DMSO using equation E1.% inhibition=(DMSOave−Xi)/DMSOave×100% E1:where DMSOave is the mean signal calculated from the wells that were treated with DMSO control (0% inhibition control) and Xi is the signal measured from the individual wells. EC50 values, effective concentrations that achieved 50% inhibitory effect, were determined by non-linear fitting using Graphpad Prism software (San Diego, Calif.) and equation E2Y=Y min+(Y max−Y min)/(1+10(Log EC50−X)×HillSlope) E2:where Y represents percent inhibition values and X represents the logarithm of compound concentrations.

Row | Structure (SMILES) | EC50 (HepG2.2.15) | pEC50 (HepG2.2.15) | EC50
1 | O=C(Nc1cccc(Br)c1)N1CCc2[nH]nc(C34CCCC3C4)c2C1 (centres undefined) | in the range around 55 nM |  | 
2 | N#Cc1cccc(NC(=O)N2CCc3[nH]nc(C45CCCC4C5)c3C2)c1F (centres undefined) | in the range around 55 nM |  | 
3 | O=C(Nc1cccc(Cl)c1)N1CCc2[nH]nc(O)c2C1 |  | < 5.00 | 
4 | O=C(Nc1cccc(Br)c1)N1CCc2[nH]nc(C3CCC3)c2C1 | in the range around 55 nM |  | 
5 | CC1Cc2[nH]nc(C3CCCO3)c2CN1C(=O)Nc1cccc(Cl)c1 (centres undefined) | in the range around 55 nM |  | 
6 | O=C(Nc1ccnc(Cl)c1F)N1CCc2[nH]nc(C34CCCC3C4)c2C1 (centres undefined) | in the range around 55 nM |  | 
7 | O=C(Nc1ccnc(Cl)c1F)N1CCc2[nH]nc(C3CCC3)c2C1 | in the range around 300 nM |  | 
8 | CC1Cc2[nH]nc(C3CCC3)c2CN1C(=O)Nc1ccc(F)c(F)c1 (centres undefined) | in the range around 55 nM |  | 
9 | O=C(Nc1ccc(F)c(Br)c1)N1CCc2[nH]nc(C34CCCC3C4)c2C1 (centres undefined) | in the range around 55 nM |  | 
10 | O=C(Nc1ccc(F)c(Cl)c1)N1CCc2[nH]nc(C3CCC3)c2C1 | in the range around 55 nM |  | 
11 | O=C(Nc1cccc(Cl)c1)N1CCc2[nH]nc(C3CCC(O)C3)c2C1 (centres undefined) | in the range around 300 nM |  | 
12 | CC1Cc2[nH]nc(C3CCCO3)c2CN1C(=O)Nc1ccc(F)c(C#N)c1 (centres undefined) | in the range around 300 nM |  | in the range around 300 nM
13 | O=C(Nc1ccc(F)c(Br)c1)N1CCc2[nH]nc(C3CCC3)c2C1 | in the range around 55 nM |  | 
14 | O=C(Nc1cccc(Cl)c1)N1CCc2[nH]nc(C3CCCO3)c2C1 (centres undefined) | in the range around 55 nM |  | 
15 | O=C(Nc1ccnc(Br)c1F)N1CCc2[nH]nc(C3CCC3)c2C1 | in the range around 300 nM |  | 
16 | CC1Cc2[nH]nc(C3CCCC3)c2CN1C(=O)Nc1ccc(F)c(C#N)c1 (centres undefined) | in the range around 55 nM |  | in the range around 55 nM
17 | CC1Cc2[nH]nc(C3CCC3)c2CN1C(=O)Nc1cccc(C#N)c1F (centres undefined) | in the range around 300 nM |  | in the range around 300 nM
18 | CC1Cc2[nH]nc(C3CCC3)c2CN1C(=O)Nc1cccc(Br)c1F (centres undefined) | in the range around 300 nM |  | 
19 | CC(C)(C)c1n[nH]c2c1CN(C(=O)Nc1cccc(Cl)c1)CC2 | in the range around 300 nM |  | 

Row | Structure (SMILES) | EC50 (HepG2.2.15) | pEC50 (HepG2.2.15) | EC50
20 | O=C(Nc1ccc(F)c(Cl)c1)N1CCc2[nH]nc(C34CCCC3C4)c2C1 (centres undefined) | in the range around 55 nM |  | 
21 | O=C(Nc1cccc(Cl)c1)N1CCc2[nH]nc(C3=CCCCC3)c2C1 | in the range around 55 nM |  | 
22 | Cc1cccc(NC(=O)N2CCc3[nH]nc(C4CCC4)c3C2)c1 | in the range around 300 nM |  | 
23 | C=C(C)c1n[nH]c2c1CN(C(=O)Nc1cccc(C)c1)CC2 | in the range around 300 nM |  | 
24 | CCC(F)(F)c1n[nH]c2c1CN(C(=O)Nc1cccc(Cl)c1)CC2 | in the range around 300 nM |  | 
25 | CC1Cc2[nH]nc(C3CCCC3)c2CN1C(=O)Nc1cccc(Cl)c1 (centres undefined) | in the range around 55 nM |  | in the range around 55 nM
26 | CC1(c2n[nH]c3c2CN(C(=O)Nc2cccc(Cl)c2)CC3)CC1 | in the range around 300 nM |  | 
27 | CC(C)c1n[nH]c2c1CN(C(=O)Nc1cccc(Cl)c1)CC2 | in the range around 300 nM |  | 
28 | O=C(Nc1ccc(F)c(F)c1)N1CCc2[nH]nc(C34CCCC3C4)c2C1 (centres undefined) | in the range around 300 nM |  | 
29 | O=C(Nc1cccc(Br)c1F)N1CCc2[nH]nc(C3CCC3)c2C1 | in the range around 55 nM |  | 
30 | CC1Cc2[nH]nc(C3CCCO3)c2CN1C(=O)Nc1ccnc(Br)c1F (centres undefined) |  | 6.12 | 
31 | CC1Cc2[nH]nc(C3CCCO3)c2CN1C(=O)Nc1ccc(F)c(Cl)c1 (centres undefined) | in the range around 55 nM |  | in the range around 55 nM
32 | O=C(Nc1cccc(Cl)c1)N1CCc2[nH]nc(C3CCCC3)c2C1 | in the range around 55 nM |  | 
33 | Cc1cc(NC(=O)N2Cc3c(C4CCCC4)n[nH]c3CC2C)ccc1F (centres undefined) | in the range around 55 nM |  | in the range around 55 nM
34 | CC1Cc2[nH]nc(C3CCC3)c2CN1C(=O)Nc1ccc(F)c(Br)c1 (centres undefined) | in the range around 55 nM |  | 
35 | Cc1cc(NC(=O)N2CCc3[nH]nc(C4CCC4)c3C2)ccc1F | in the range around 55 nM |  | 
36 | C=C(C)c1n[nH]c2c1CN(C(=O)Nc1cccc(Cl)c1)CC2 | in the range around 55 nM |  | 
37 | CC1Cc2[nH]nc(C3CCC3)c2CN1C(=O)Nc1cccc(Br)c1 (centres undefined) | in the range around 55 nM |  | 
38 | Cc1cc(NC(=O)N2Cc3c(C4CCC4)n[nH]c3CC2C)ccc1F (centres undefined) | in the range around 55 nM |  | 
